Consider 18 compounds from patent US20250340557A1, “PYRIMIDINE DERIVATIVE” (ASKA PHARMACEUTICAL CO., LTD., priority 2022, published 2025).

Each structure is given as a SMILES string. Where two headings read alike, the source gives them in different places. Where only a bound is given, the exact number is not on record here.

As a reminder, the IC50 is the point on the concentration scale where inhibition reaches its midpoint.

For the test, the target named is T1, human mPGES-1 (Homo sapiens, UniProt O14684).
T1 construct: made in house; host or cells: COS-1 cells (transient transfection; microsomal fraction used as enzyme)
T1 sequence (O14684 1-152): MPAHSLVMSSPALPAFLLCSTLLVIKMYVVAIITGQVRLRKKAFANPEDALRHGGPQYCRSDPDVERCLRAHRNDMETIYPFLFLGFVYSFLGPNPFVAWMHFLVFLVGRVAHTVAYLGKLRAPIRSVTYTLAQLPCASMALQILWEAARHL
Nature of the test: Test for mPGES-1 inhibitory activity (microsomal enzyme, PGE2 EIA). It counts as biochemical. Particulars: 4° C., 4 minutes, read-out: h mPGES1 IC50. Put shortly:
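IC50 values were derived from EIA-quantified PGE2 after a 4 min, 4 °C reaction with PGH2 at 1 μM final, stopped with ferric chloride/citric acid. Beforehand, compound (2% DMSO final) sat 15 min at 4 °C with human mPGES-1 microsomes from transiently transfected COS-1 cells. Buffer was sodium phosphate pH 7.2 containing 2.5 mM reduced glutathione and 1 mM EDTA.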

Where [1] appears, read: microsomes from COS-1 cells transfected with human mPGES-1 cDNA, substrate PGH2 1 μM, PGE2 measured by EIA.
Where [2] appears, read: microsomes of COS-1 cells transfected with human mPGES-1 cDNA, PGH2 1 μM, PGE2 by EIA.

Turning to `Cc1nc(-c2c(C(F)(F)F)ccc(CNC(=O)C3CCN(c4ccc5cccc(C)c5n4)CC3)c2F)[nH]c(=O)c1F` [Example 14, N-[2-fluoro-3-(5-fluoro-4-methyl-6-oxo-1,6-dihydropyrimidin-2-yl)-4-(trifluoromethyl)benzyl]-1-(8-methylquinolin-2-yl)piperidine-4-carboxamide], the concentration for half-maximal inhibition (IC50) under setting [1] was less than 1 nM.

`Cc1ccc(N2CCC(C(=O)NCc3ccc(C(F)(F)F)c(-c4nc(C(F)(F)F)cc(=O)[nH]4)c3F)CC2)cc1` [Example 61, N-{2-fluoro-3-[6-oxo-4-(trifluoromethyl)-1,6-dihydropyrimidin-2-yl]-4-(trifluoromethyl)benzyl}-1-(4-methylphenyl)piperidine-4-carboxamide]: the IC50 under setting [1] came out at 0.87 nM.

Turning to `Cc1cc(=O)[nH]c(-c2c(C(F)(F)F)ccc(CNC(=O)[C@H]3C[C@H](OCc4cc(F)cc(F)c4)C3)c2F)n1` [Example 187, trans-3-[(3,5-difluorobenzyl)oxy]-N-[2-fluoro-3-(4-methyl-6-oxo-1,6-dihydropyrimidin-2-yl)-4-(trifluoromethyl)benzyl]cyclobutane-1-carboxamide], the IC50 under setting [2] stood at 6.4 nM.

As to `Cc1nc(-c2c(C(F)(F)F)ccc(CNC(=O)[C@H]3C[C@H](OCc4cccc(Cl)c4)C3)c2F)[nH]c(=O)c1C` [Example 246, trans-3-[(3-chlorobenzyl)oxy]-N-[3-(4,5-dimethyl-6-oxo-1,6-dihydropyrimidin-2-yl)-2-fluoro-4-(trifluoromethyl)benzyl]cyclobutane-1-carboxamide], under setting [2], the IC50 is less than 1 nM.

With `O=c1cc(C(F)(F)F)nc(-c2c(C(F)(F)F)ccc(CNC(=O)[C@H]3C[C@@H](OCc4cccc(Cl)c4)C3)c2F)[nH]1` (stereo in doubt) [Example 139, cis-3-[(3-chlorobenzyl)oxy]-N-{2-fluoro-3-[6-oxo-4-(trifluoromethyl)-1,6-dihydropyrimidin-2-yl]-4-(trifluoromethyl)benzyl}cyclobutane-1-carboxamide], under setting [1], the IC50 is less than 1 nM.

Turning to `O=c1cc(-c2ccc(C(F)(F)F)cn2)nc(-c2c(C(F)(F)F)ccc(CNS(=O)(=O)c3ccccc3C(F)(F)F)c2F)[nH]1` [Example 269, N-(2-fluoro-3-{6-oxo-4-[5-(trifluoromethyl)pyridin-2-yl]-1,6-dihydropyrimidin-2-yl}-4-(trifluoromethyl)benzyl)-2-(trifluoromethyl)benzenesulfonamide], the IC50 under setting [2] was determined as 7.6 nM.

For `Cc1cc(=O)[nH]c(-c2c(C(F)(F)F)ccc(CNC(=O)C3CCN(c4ccc(C(F)(F)F)cn4)CC3)c2F)n1` [Example 34, N-[2-fluoro-3-(4-methyl-6-oxo-1,6-dihydropyrimidin-2-yl)-4-(trifluoromethyl)benzyl]-1-[5-(trifluoromethyl)pyridin-2-yl]piperidine-4-carboxamide], the IC50 under setting [1] is less than 1 nM.

As to `O=c1cc(C(F)(F)F)nc(-c2c(C(F)(F)F)ccc(CNC(=O)[C@H]3C[C@@H](OCc4cc(F)cc(Cl)c4)C3)c2F)[nH]1` [Example 160, cis-3-[(3-chloro-5-fluorobenzyl)oxy]-N-{2-fluoro-3-[6-oxo-4-(trifluoromethyl)-1,6-dihydropyrimidin-2-yl]-4-(trifluoromethyl)benzyl}cyclobutane-1-carboxamide], the IC50 under setting [2] was less than 1 nM.

`O=C(NCc1ccc(C(F)(F)F)c(-c2nc(-c3ccc(C(F)(F)F)cn3)cc(=O)[nH]2)c1F)C1CC(OCc2ccccc2)C1` (stereo not drawn) [Example 266, 3-(benzyloxy)-N-(2-fluoro-3-{6-oxo-4-[5-(trifluoromethyl)pyridin-2-yl]-1,6-dihydropyrimidin-2-yl}-4-(trifluoromethyl)benzyl)cyclobutane-1-carboxamide]: the 50% inhibitory concentration (IC50) under setting [2] was less than 1 nM.

Consider `CCc1nc(-c2c(C(F)(F)F)ccc(CNC(=O)[C@H]3C[C@H](OCc4cc(F)cc(F)c4)C3)c2F)[nH]c(=O)c1F` [Example 238, trans-3-[(3,5-difluorobenzyl)oxy]-N-[3-(4-ethyl-5-fluoro-6-oxo-1,6-dihydropyrimidin-2-yl)-2-fluoro-4-(trifluoromethyl)benzyl]cyclobutane-1-carboxamide], for which the IC50 under setting [2] is less than 1 nM.

Take `Cc1nc(-c2c(C(F)(F)F)ccc(CNC(=O)C3CCN(c4ccc5cccc(C)c5n4)CC3)c2F)[nH]c(=O)c1C` [Example 13, N-[3-(4,5-dimethyl-6-oxo-1,6-dihydropyrimidin-2-yl)-2-fluoro-4-(trifluoromethyl)benzyl]-1-(8-methylquinolin-2-yl)piperidine-4-carboxamide]: the half-maximal inhibitory concentration (IC50) under setting [1] worked out at 2.4 nM.

For the compound `CCc1nc(-c2c(C(F)(F)F)ccc(CNC(=O)[C@H]3C[C@H](OCc4ccccc4C(F)(F)F)C3)c2F)[nH]c(=O)c1F` [Example 232, trans-N-[3-(4-ethyl-5-fluoro-6-oxo-1,6-dihydropyrimidin-2-yl)-2-fluoro-4-(trifluoromethyl)benzyl]-3-{[2-(trifluoromethyl)benzyl]oxy}cyclobutane-1-carboxamide], under setting [2], the half-maximal inhibitory concentration (IC50) is less than 1 nM.

As to `Cc1nc(-c2c(C(F)(F)F)ccc(CNC(=O)[C@H]3C[C@H](OCc4cc(Cl)ccc4F)C3)c2F)[nH]c(=O)c1F` [Example 226, trans-3-[(5-chloro-2-fluorobenzyl)oxy]-N-[2-fluoro-3-(5-fluoro-4-methyl-6-oxo-1,6-dihydropyrimidin-2-yl)-4-(trifluoromethyl)benzyl]cyclobutane-1-carboxamide], the IC50 under setting [2] is less than 1 nM.

In the case of `CCc1nc(-c2c(C(F)(F)F)ccc(CNC(=O)[C@H]3C[C@H](OCc4ccc(F)c(Cl)c4)C3)c2F)[nH]c(=O)c1F` [Example 244, trans-3-[(3-chloro-4-fluorobenzyl)oxy]-N-[3-(4-ethyl-5-fluoro-6-oxo-1,6-dihydropyrimidin-2-yl)-2-fluoro-4-(trifluoromethyl)benzyl]cyclobutane-1-carboxamide], the 50% inhibitory concentration (IC50) under setting [2] is less than 1 nM.

`O=c1cc(C(F)(F)F)nc(-c2c(C(F)(F)F)ccc(CNC(=O)[C@H]3CC[C@H](OCc4ccc(Cl)cc4)CC3)c2F)[nH]1` [Example 101, trans-4-[(4-chlorobenzyl)oxy]-N-{2-fluoro-3-[6-oxo-4-(trifluoromethyl)-1,6-dihydropyrimidin-2-yl]-4-(trifluoromethyl)benzyl}cyclohexane-1-carboxamide]: the half-inhibitory concentration (IC50) under setting [1] was less than 1 nM.

Consider `O=c1cc(C(F)(F)F)nc(-c2c(C(F)(F)F)ccc(CNC(=O)[C@H]3C[C@@H](OCc4ccccc4C(F)(F)F)C3)c2F)[nH]1` [Example 143, cis-N-{2-fluoro-3-[6-oxo-4-(trifluoromethyl)-1,6-dihydropyrimidin-2-yl]-4-(trifluoromethyl)benzyl}-3-{[2-(trifluoromethyl)benzyl]oxy}cyclobutane-1-carboxamide], for which the half-maximal inhibitory concentration (IC50) under setting [1] stood at 28 nM.

Take `CCc1cc(=O)[nH]c(-c2c(C(F)(F)F)ccc(CNC(=O)[C@H]3CC[C@H](OCc4ccc(F)cc4F)CC3)c2F)n1` [Example 129, trans-4-[(2,4-difluorobenzyl)oxy]-N-[3-(4-ethyl-6-oxo-1,6-dihydropyrimidin-2-yl)-2-fluoro-4-(trifluoromethyl)benzyl]cyclohexane-1-carboxamide]: the IC50 under setting [1] was determined as 25 nM.

Regarding `O=C(NCc1ccc(C(F)(F)F)c(-c2nc(C(F)(F)F)cc(=O)[nH]2)c1F)C1CCN(c2ccc(C(F)(F)F)cc2)CC1` [Example 63, N-{2-fluoro-3-[6-oxo-4-(trifluoromethyl)-1,6-dihydropyrimidin-2-yl]-4-(trifluoromethyl)benzyl}-1-[4-(trifluoromethyl)phenyl]piperidine-4-carboxamide], the half-maximal inhibitory concentration (IC50) under setting [1] worked out at 1.1 nM.
